Test results taken from patent US12246002B2, “Pharmaceutical composition for prevention or treatment of circadian rhythm-related disorders, comprising oxyiminomethylbenzene derivative as active ingredient” (KOREA UNIVERSITY RESEARCH AND BUSINESS FOUNDATION, priority 2018, dated 2025).

How the values were obtained:
[1] = tested on: CLOCK:BMAL1 dimer; assay: E-box-LUC reporter assay of transcriptional activity of CLOCK:BMAL1 dimer in NIH-3T3 fibroblast line; format: cell-based; details: NIH-3T3 E-box-LUC cells; for Max (%) maximum activity of E-box-LUC reporter compared to the control group: four parameter logistic fit, DMSO control
Procedure: The NIH-3T3 fibroblast line (Non-patent document 6) expressing the E-box-LUC reporter was used to evaluate the effect of the oxyiminomethylbenzene derivative on the transcriptional activity of the CLOCK:BMAL1 dimer mediated by E-box. Reporter-expressing fibroblast line was maintained and cultured in an incubator in a humidified state at 5% carbon dioxide and 37 degrees Celsius, using Dulbecco's modified eagles medium (Invitrogen) having 10% fetal bovine serum, 1% penicillin/streptomycin (Invitrogen) and 1% L-glutamine added thereto.
(§1) The reporter-expressing cell line was dispensed and cultured in a 48-well culture plate 24 hours before compound treatment. The cultured cells were finally treated with a compound to a concentration of 0.1, 0.3, 1.0, 3.0, 10, 30 or 100 μM. As a control group (0 μM), cells treated with the same amount of dimethyl sulfoxide (DMSO) were used. After 36 hours elapsed after treatment of the compound, the cells were washed twice with 1× D-PBS, and was lysed for 15 minutes using 100 μl of a cell lysis buffer (Promega) per well. After reacting a 20 μl sample of the lysate with the same amount of a luciferase assay reagent (Promega), the luciferase activity was measured using a luminometer (TD-20/20 Luminometer, Turner systems). The measured luciferase activity was corrected based on the protein content of the lysate. The protein content was measured using a Bradford staining reagent from Bio-rad.
(§2) The concentration-response correlation for each derivative was converted to a standard curve using Four Parameter Logistic Equation. The calculation process utilized the statistical analysis function provided by SigmaPlot 10.0 ([…], Systat Software Inc.). Based on the concentration-response curve, the maximum activity (Max) and EC50 values of each derivative were calculated and input in [Table 1]. When the compound induces cell death, cytotoxicity (Tox.) was input to the EC50 field. The concentration-reaction correlation curves of compounds of Chemical Formula 8-9, 9-9, 8-10 and 9-10 as a representative example are shown in FIG. 1.

[2] = tested on: NIH-3T3 fibroblast line; assay: Cytotoxicity (cell death) seen in the E-box-LUC reporter assay; format: cell-based; details: for cytotoxicity (Tox.) input to the EC50 field when the compound induces cell death: NIH-3T3 E-box-LUC cells, 0.1-100 μM, 36 hours
Procedure: as §1, §2

[3] = tested on: PER2-LUC fusion protein; assay: Circadian rhythm expression of PER2-LUC fusion protein in PER2-LUC knock-in fibroblasts (real-time bioluminescence, Cosinor analysis); format: cell-based, mouse; details: 20 μM, PER2-LUC KI fibroblasts, FIG. 3; for amplitude of the circadian rhythm expression of the PER2-LUC fusion protein: DEX synchronized, up to 5 days
Procedure: The effects of the compounds (8-9 and 8-10) prepared in Example 1 on the circadian rhythm expression of the molecular biological clock whose the cells are expressed through inhibition of CRY and enhancement of transcriptional activity of CLOCK:BMAL1 were evaluated. To this end, a mutant fibroblast line (PER2-LUC knock-in fibroblast) was used in which a PER2-LUC fusion protein is expressed via linking the luciferase gene from the position where the stop codon of the PER2 gene is located. The cell line was established from lung tissue of PER2-LUC knock-in mutant mice (Non-patent document 31) 1 week after birth. PER2-LUC knock-in (KI) fibroblasts was maintained and cultured in the incubator under a humidified state at 5% carbon dioxide and 37 degrees Celsius using Dulbecco's modified Eagle medium supplemented with 10% serum, 1% penicillin/streptomycin, and 1% L-glutamine.
After treating the cultured cells with 200 nM dexamethasone (DEX) for 2 hours for synchronization, the DEX was replaced with a medium including the substrate of luciferase that is, luciferin (final concentration 0.1 mM) with 20 μM of the compound of Chemical Formula 8-9 or 8-10. As a control group, cells (VEH) treated with the same amount of dimethyl sulfoxide instead of the compound were used. As another comparative group, the cells treated with a 2-ethoxypropionic acid-based CRY inhibitor (Non-patent document 6), that is, KS15 (final concentration 20 μM) was used. The control and the KS15-treated cells were also replaced with a medium including luciferin of the same concentration.
Bioluminescence signals generated from cells cultured in a medium including the compound and luciferin were continuously measured for up to 5 days at 10-minute intervals using a real-time bioluminescence measurement equipment (Kronos-DIO, ATTO). The results were identified through statistical detrending. The circadian rhythm expression pattern of the PER2-LUC fusion protein was analyzed using the Cosinor analysis program (free distribution on http://www.circadian.org) to determine the amplitude, period, and robustness of the periodicity. Based on the results obtained through 4 replicate experiments, the statistical significance of the change according to compound treatment was verified.

SMILES | Max (%) maximum activity of E-box-LUC reporter compared to the control group ([1]; 0.1-100 μM, 36 hours) [%] | further results
COC(=O)COc1cccc(C(C)=NOCc2cccc(C(F)(F)F)c2)c1 [Compound 8-1, methyl 2-{3-[N-{[3-(trifluoromethyl)phenyl]methoxy}ethanimidoyl]phenoxy}acetate] | – | EC50 ([1]; 0.1-100 μM, 36 hours): 27.4 µM
COC(=O)COc1cccc(C(C)=NOCc2ccc(Br)cc2)c1 [Compound 8-5, methyl 2-(3-{N-[(4-bromophenyl)methoxy]ethanimidoyl}phenoxy)acetate] | – | cytotoxicity (Tox.) input to the EC50 field when the compound induces cell death [2]: (Tox.)
CC(=NOCc1ccc(Br)cc1)c1cccc(OCC(=O)O)c1 [Compound 8-6, (3-{N-[(4-bromophenyl)methoxy]ethanimidoyl}phenoxy)acetic acid] | 123.78 | cytotoxicity (Tox.) input to the EC50 field when the compound induces cell death [2]: (Tox.)
CC(=NOCc1ccc(Br)cc1)c1cccc(OCC(=O)NCc2ccccn2)c1 [Compound 8-7, 2-{3-[N-(4-bromophenyl)methoxyethanimidoyl]phenoxy}-N-[(pyridin-2-yl)methyl]acetamide] | 129.69 | –
CC(=NOCc1ccc(Br)cc1)c1cccc(OCC(=O)NCCc2ncc[nH]2)c1 [Compound 8-8, 2-{3-[N-(4-bromophenyl)methoxyethanimidoyl]phenoxy}-N-[2-(1H-imidazol-2-yl)ethyl]acetamide] | 121.10 | cytotoxicity (Tox.) input to the EC50 field when the compound induces cell death [2]: (Tox.)
COC(=O)COc1cccc(C(C)=NOCc2ccc([N+](=O)[O-])cc2)c1 [Compound 8-9, methyl 2-(3-{N-[(4-nitrophenyl)methoxy]ethanimidoyl}phenoxy)acetate] | – | activity of E-box-LUC (concentration-response, FIG. 1) [1]: increase the activity of E-box-LUC in a concentration-dependent manner; cytotoxicity ([2]; at up to 100 μM): No significant cytotoxicity; amplitude of the circadian rhythm expression of the PER2-LUC fusion protein [3]: increases the amplitude of the circadian rhythm expression of the PER2-LUC fusion protein at a significant level; period of the circadian rhythm expression of the PER2-LUC fusion protein [3]: not affecting the period; robustness of the circadian rhythm expression of the PER2-LUC fusion protein [3]: not affecting the period or robustness
CC(=NOCc1ccc([N+](=O)[O-])cc1)c1cccc(OCC(=O)O)c1 [Compound 8-10, (3-{N-[(4-nitrophenyl)methoxy]ethanimidoyl}phenoxy)acetic acid] | – | activity of E-box-LUC (concentration-response, FIG. 1) [1]: increase the activity of E-box-LUC in a concentration-dependent manner; amplitude of the circadian rhythm expression of the PER2-LUC fusion protein [3]: increases the amplitude of the circadian rhythm expression of the PER2-LUC fusion protein at a significant level; period of the circadian rhythm expression of the PER2-LUC fusion protein [3]: not affecting the period; robustness of the circadian rhythm expression of the PER2-LUC fusion protein [3]: not affecting the period or robustness
CC(=NOCc1ccc(S(C)(=O)=O)cc1)c1cccc(OCC(=O)O)c1 [Compound 8-12, {3-[N-{[4-(methanesulfonyl)phenyl]methoxy}ethanimidoyl]phenoxy}acetic acid] | 98.71 | –
COC(=O)COc1cccc(C(C)=NOCc2ccc(F)cc2)c1 [Compound 8-13] | 119.93 | cytotoxicity (Tox.) input to the EC50 field when the compound induces cell death [2]: (Tox.)
COC(=O)COc1ccc(C(C)=NOCc2cccc(C(F)(F)F)c2)cc1 [Compound 9-1, methyl 2-{4-[N-{[3-(trifluoromethyl)phenyl]methoxy}ethanimidoyl]phenoxy}acetate] | 107.89 | –
CC(=NOCc1cccc(C(F)(F)F)c1)c1ccc(OCC(=O)O)cc1 [Compound 9-2, {4-[N-{[3-(trifluoromethyl)phenyl]methoxy}ethanimidoyl]phenoxy}acetic acid] | 115.15 | –
COC(=O)COc1ccc(C(C)=NOCc2ccc(OC)cc2)cc1 [Compound 9-3, methyl 2-(4-{N-[(4-methoxyphenyl)methoxy]ethanimidoyl}phenoxy)acetate] | 103.87 | –
COc1ccc(CON=C(C)c2ccc(OCC(=O)O)cc2)cc1 [Compound 9-4, (4-{N-[(4-methoxyphenyl)methoxy]ethanimidoyl}phenoxy)acetic acid] | 102.65 | –
COC(=O)COc1ccc(C(C)=NOCc2ccc(Br)cc2)cc1 [Compound 9-5, methyl 2-(4-{N-[(4-bromophenyl)methoxy]ethanimidoyl}phenoxy)acetate] | 111.88 | –
CC(=NOCc1ccc(Br)cc1)c1ccc(OCC(=O)O)cc1 [Compound 9-6, (4-{N-[(4-bromophenyl)methoxy]ethanimidoyl}phenoxy)acetic acid] | 106.70 | –
CC(=NOCc1ccc(Br)cc1)c1ccc(OCC(=O)NCc2ccccn2)cc1 [Compound 9-7, 2-{4-[N-(4-bromophenyl)methoxyethanimidoyl]phenoxy}-N-[(pyridin-2-yl)methyl]acetamide] | 135.47 | –
CC(=NOCc1ccc(Br)cc1)c1ccc(OCC(=O)NCCc2ncc[nH]2)cc1 [Compound 9-8, 2-{4-[N-(4-bromophenyl)methoxyethanimidoyl]phenoxy}-N-[2-(1H-imidazol-2-yl)ethyl]acetamide] | 120.89 | –
COC(=O)COc1ccc(C(C)=NOCc2ccc([N+](=O)[O-])cc2)cc1 [Compound 9-9, methyl 2-(4-{N-[(4-nitrophenyl)methoxy]ethanimidoyl}phenoxy)acetate] | 113.52 | –
CC(=NOCc1ccc([N+](=O)[O-])cc1)c1ccc(OCC(=O)O)cc1 [Compound 9-10, (4-{N-[(4-nitrophenyl)methoxy]ethanimidoyl}phenoxy)acetic acid] | 108.43 | –
COC(=O)COc1ccc(C(C)=NOCc2ccc(S(C)(=O)=O)cc2)cc1 [Compound 9-11, methyl 2-{4-[N-{[4-(methanesulfonyl)phenyl]methoxy}ethanimidoyl]phenoxy}acetate] | 100.39 | –
CC(=NOCc1ccc(S(C)(=O)=O)cc1)c1ccc(OCC(=O)O)cc1 [Compound 9-12, {4-[N-{[4-(methanesulfonyl)phenyl]methoxy}ethanimidoyl]phenoxy}acetic acid] | 111.38 | –
